Columns and labels:
[1] = system: T1, human plasma factor Xa (Homo sapiens); experiment: Antithrombin-dependent factor Xa inhibition (residual factor Xa activity, Spectrozyme fXa substrate); format: biochemical; details: 10 μM sulfated compound; 1 μM human plasma antithrombin, 10 nM human plasma factor Xa, pH 6.0, 25° C., 10 min
T1 construct: 10 nM human plasma factor Xa; from tissue; host or cells: human plasma
Protocol: (§1) Methods. To assay anticoagulant activity, compounds were incubated with 1 μM human plasma antithrombin and 10 nM human plasma factor Xa in 20 mM sodium phosphate buffer, pH 6.0, at 25° C. for 10 min. After incubation, residual factor Xa activity was measured spectrophotometrically using Spectrozyme fXa substrate. From the decrease in residual factor Xa activity as a function of sulfated bis-cyclic agent concentration, the anticoagulant potential of each sample was calculated.
(§2) A key test of in vitro anticoagulant activity is the inhibition of Factor Xa., a critical enzyme involved in blood clotting.
(§3) Each peak was isolated and its factor Xa inhibition potential was determined at concentrations in the range of 1-50 μM.

[2] = molecular target: T2, human plasma factor Xa (Homo sapiens, UniProt P01008); experiment: as above; format: biochemical; details: tested at 1-50 μM
T2 construct: 10 nM human plasma factor Xa; from tissue; host or cells: human plasma
T2 sequence (P01008 33-464): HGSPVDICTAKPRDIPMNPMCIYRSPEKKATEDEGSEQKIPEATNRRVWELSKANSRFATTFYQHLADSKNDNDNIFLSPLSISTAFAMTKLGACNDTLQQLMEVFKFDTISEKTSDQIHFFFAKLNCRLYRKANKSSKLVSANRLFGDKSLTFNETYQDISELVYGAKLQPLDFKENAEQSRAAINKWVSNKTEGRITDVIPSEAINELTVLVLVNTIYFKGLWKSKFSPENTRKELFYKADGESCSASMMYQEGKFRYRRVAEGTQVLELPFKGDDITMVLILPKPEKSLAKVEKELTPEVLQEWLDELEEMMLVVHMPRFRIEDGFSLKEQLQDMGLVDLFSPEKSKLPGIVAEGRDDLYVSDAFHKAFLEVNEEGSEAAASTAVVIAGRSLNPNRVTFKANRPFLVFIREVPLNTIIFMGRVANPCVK
Protocol: as §1, §2, §3

T1 sequence (P01008 33-464): as above

Inhibition (Factor Xa inhibition by sulfated compounds) [1]: 86%
acceleration of the inhibition of human factor Xa by human plasma antithrombin [2]: greatly accelerates the inhibition
Substance: (3S)-6,7-bis-sulfonato-2-(3,4,5-tris-sulfonato-benzoyl)-1,2,3,4-tetrahydro-isoquinoline-3-carboxylate [Peak P1]

Source: patent US20070173529A1, “Sulfated bis-cyclic agents” (priority 2003, published 2007)
